Measured values published in patent US20150377876A1, “DIAGNOSTIC TOOLS TO PREDICT ONSET OF PREECLAMPSIA” (UNIVERSITY OF IOWA RESEARCH FOUNDATION, priority 2013, published 2015).
Read-outs that look alike come from different tables or passages of the source. One block for each compound: values may come before it.

Legend:
C57B1/6J mice = experiment: Vasopressin infusion during pregnancy, preeclampsia-like phenotypes; type: in vivo
Method: Animal Studies: Female C57B1/6J mice were obtained from Jackson Laboratories between 8-12 weeks of age. Osmotic minipumps infusing vasopressin (240 ng/hr) or saline vehicle were inserted into the subcutaneous space via incision between the scapulae. Following three days of recovery, females were mated with male C57B1/6J mice. Presence of a vaginal plug indicated gestational day 0.5. Blood pressure was tracked before mating and throughout gestation by tail-cuff plethysmography. On gestational day 18, females were sacrificed for necropsy. Pup weight was recorded. Dam kidney sections were generated and imaged by electron microscopy by the University of Iowa Department of Pathology. All studies were approved by the University of Iowa Animal Care and Use Committee (ACURF#1211239).

[1] = tested on: 2°-branch mesenteric artery; experiment: tissue or blood; design: species or system mice; details: for Maximum Response, contraction / EC50: mesenteric artery; for EC50: read-out: EC50, contractile response
Method: Mesenteric Artery Vascular Reactivity: Secondary branches of mesenteric artery were dissected and placed in chilled oxygenated (21% O2, 5% CO2, and 74% N2) Kreb's buffer. A segment (˜1 mm long) of artery was transferred to a vessel chamber (DMT), cannulated with glass micropipettes and secured with silk ligatures. The artery was slowly pressurized to 40 mmHg without flow. After 30 min equilibration, vessel viability was tested by constriction response to 100 mM KCl. Vascular responses to PE (10-9-10-5 mol/L), AVP (10-12-10-7 mol/L), and ET-1 (10-11-10-8 mol/L) were then assessed. The artery was then superfused with calcium-free Krebs buffer containing 10-5 mol/L sodium nitroprusside and 2 mmol/L EGTA to maximally dilate the vessel. Internal and external diameters were measured at 75 mm Hg. Wall thickness, media/lumen ratio and cross sectional area (CSA) were calculated as previously described by Neves, et al. (58).
Statistics: Data were analyzed by ANOVA with repeated measures as appropriate. Post-hoc analyses were performed using Bonferroni multiple-comparisons procedures. EC50 and maximum response calculations were performed by fitting individual dose-response data sets to a four-parameter logistic function (Hillslope method); y=min+(max−min)/(1+(x/EC50)̂Hill slope). All mRNA fold changes were calculated using the Livak method (51). All analytical comparisons were performed using SigmaStat/SigmaPlot (Systat). All data are presented as mean±sem.

[2] = in blood; cited from earlier work
abdominal aorta [3] = details: for Maximum Response, contraction / EC50 / Maximum Response, relaxation: abdominal aorta; for EC50: read-out: EC50, contractile response; for Maximum Response, relaxation: after sub-maximal contraction with PGF2a
Method: (§1) Aortic Vascular Reactivity: Abdominal aortic rings were assessed for vascular reactivity as previously described (30). Briefly, mice were euthanized by overdose of pentobarbital (50 mg, i.p.), and the abdominal aorta was quickly removed and placed in Kreb's buffer containing (in mmol/L): 118.3 NaCl, 4.7 KCl, 1.2 MgSO4, 1.2 KH2PO4, 25 NaHCO3, 2.5 CaCl2 and 11 glucose. Vascular rings (4-5 mm in length) were suspended in oxygenated Kreb's buffer (95% O2/5% CO2) in organ baths at 37° C. and connected to a force transducer via steel hooks. Resting tension was adjusted to 0.5 grams over 45 minutes.
(§2) Statistics: Data were analyzed by ANOVA with repeated measures as appropriate. Post-hoc analyses were performed using Bonferroni multiple-comparisons procedures. EC50 and maximum response calculations were performed by fitting individual dose-response data sets to a four-parameter logistic function (Hillslope method); y=min+(max−min)/(1+(x/EC50)̂Hill slope). […] All analytical comparisons were performed using SigmaStat/SigmaPlot (Systat). All data are presented as mean±sem.

sRA mice [4] = experiment: Blood pressure by tail-cuff during chronic subcutaneous infusion; type: in vivo; details: 22 ng/h sc by osmotic minipump, 10 days
Method: Here we first examined blood pressure in sRA mice using a Visitech Systems BP-2000 tail-cuff blood pressure monitoring system, as previously described (79). Briefly, animals were acclimated to warmed restraint boxes daily for 1 wk. Once acclimated, 30 measurements of systolic blood pressure were averaged from each animal daily for 2 wk to assess baseline blood pressure. Conivaptan (Vaprisol, YM 087, 22 ng/h sc, Baxter Healthcare) or tolvaptan (OPC-41061, 22 ng/h sc, Sigma Aldrich) was delivered to distinct subsets of mice by osmotic minipump (model 1004, Alzet). After osmotic minipump implantation, pressures were recorded daily for 10 days to assess drug effects.

sRA mice [5] = experiment: Radiotelemetric blood pressure, heart rate and physical activity during chronic subcutaneous infusion; type: in vivo; details: for radiotelemetric blood pressure: sRA mice, 22 ng/h sc infusion (conivaptan 18 days, one female; tolvaptan 10 days, n=4 female)
Method: Blood pressure (telemetry). Radiotelemetric blood pressures were recorded from the carotid artery essentially as previously reported (27). Briefly, a telemeter probe (DSI, model TA11PA-C10) was inserted into the common carotid artery under ketamine-xylazine anesthesia. After >2 days of recovery, blood pressure, heart rate, and spontaneous physical activity were recorded for 30 s every 5 min using the Dataquest program (DSI). After baseline recordings, mice were chronically delivered conivaptan and tolvaptan via osmotic minipump that was implanted through an interscapular incision into the subcutaneous space of the back under isoflurane anesthesia.

[6] = tested on: sRA and control littermate mice; experiment: Blood chemistry following tolvaptan infusion (iSTAT CHEM8+); type: in vivo; details: for Anion gap / BUN / Chloride / Glucose / Hematocrit / Ionized calcium / Potassium / Sodium / Total CO2 / Creatinine: tolvaptan 22 ng/h, 10 days sc; for Creatinine: lower detection limit 0.20 mg/dl
Method: Blood and urine analyses: Plasma was obtained by collecting whole blood by submandibular bleed into lithium heparin coated tubes, then centrifuged at 5,000×g for 5 minutes, and the supernatant transferred to a fresh tube and frozen at −80° C. until analysis. Urine was collected using Nalgene single-mouse metabolism cages as previously described (20). Copeptin was measured using an ELISA kit (USCN Life Sciences), according to the manufacturer's instructions. Blood chemistries and urine creatinine were determined using a handheld iSTAT clinical chemistry analyzer (Abbott), with CHEM8+ cartridges. Urine protein was determined using a bicinchoninic acid assay kit (Thermo Fisher/Pierce), according to the manufacturer's instructions.

abdominal aorta [7] = experiment: tissue or blood; details: Mus musculus
Method: as §1, §2

[8] = female sRA mouse, 22 ng/h sc, 18 days

SMILES: NC(=O)CC[C@@H]1NC(=O)[C@H](Cc2ccccc2)NC(=O)[C@H](Cc2ccc(O)cc2)NC(=O)[C@@H](N)CSSC[C@@H](C(=O)N2CCC[C@H]2C(=O)N[C@@H](CCCN=C(N)N)C(=O)NCC(N)=O)NC(=O)[C@H](CC(N)=O)NC1=O [Arginine vasopressin, arginine vasopressin]
- renal pathology (electron microscopy) (C57B1/6J mice; dam kidney, gestational day 18, 240 ng/hr sc minipump): pathognomic glomerular endotheliosis
- rate of pregnancy (fecundity) (C57B1/6J mice; female C57B1/6J mice, 240 ng/hr sc minipump): significantly reduced the rate of pregnancy
- fetal growth (C57B1/6J mice; gestational day 18 fetuses, 240 ng/hr sc minipump): substantial fetal growth restriction
- proteinuria (C57B1/6J mice; pregnant C57B1/6J mice, 240 ng/hr sc minipump): apparent proteinuria
- blood pressure during pregnancy (C57B1/6J mice; pregnant C57B1/6J mice, 240 ng/hr sc minipump, tail-cuff): robust increase in blood pressure
- Maximum Response, contraction ([1]; male control littermate mice): 52.5 ± 3.2%
- EC50 ([1]; male control littermate mice): 0.57 ± 0.15 nM
- EC50 ([1]; male sRA mice): 15.9 ± 13.5 nM
- biological half-life [2]: 5-20 minutes
- Maximum Response, contraction (abdominal aorta [3]; male control littermate mice): 0.29 ± 0.03 g
- Maximum Response, contraction (abdominal aorta [3]; male sRA mice): 0.12 ± 0.01 g
- EC50 (abdominal aorta [3]; male control littermate mice): 2.19 ± 0.19 nM
- EC50 (abdominal aorta [3]; male sRA mice): 3.72 ± 0.73 nM

SMILES: Cc1nc2c([nH]1)-c1ccccc1N(C(=O)c1ccc(NC(=O)c3ccccc3-c3ccccc3)cc1)CC2 [conivaptan]
- systolic blood pressure (tail-cuff), effect on hypertension (sRA mice [4]): complete normalization of the hypertension
- heart rate (telemetry) (sRA mice [5]; [8]): slight reduction in heart rate
- spontaneous physical activity (sRA mice [5]; [8]): remained normal
- radiotelemetric blood pressure (sRA mice [5]): gradual but substantial reduction in blood pressure

- EC50 (abdominal aorta [3]; male control littermate mice): 4600 nM
- EC50 (abdominal aorta [3]; male sRA mice): 3600 nM
SMILES: CCCCC[C@H](O)/C=C/[C@@H]1[C@@H](C/C=C\CCCC(=O)O)[C@@H](O)C[C@H]1O [Prostaglandin F2α, prostaglandin F2a]
- Maximum Response, contraction (abdominal aorta [3]; male control littermate mice): 1.59 ± 0.06 g
- Maximum Response, contraction (abdominal aorta [3]; male sRA mice): 1.50 ± 0.10 g

SMILES: Cc1ccccc1C(=O)Nc1ccc(C(=O)N2CCC[C@@H](O)c3cc(Cl)ccc32)c(C)c1 [Tolvaptan, tolvaptan]
- systolic blood pressure (tail-cuff), effect on hypertension (sRA mice [4]): nearly identical normalization of blood pressure
- Anion gap ([6]; female control mice): 17.0 ± 1.5 mM
- BUN ([6]; female control mice): 18.4 ± 0.9 mg/dL
- Chloride ([6]; female control mice): 112.4 ± 0.5 mM
- Glucose ([6]; female control mice): 190 ± 13 mg/dL
- Hematocrit ([6]; female control mice): 45.4 ± 0.7 % RBC
- Ionized calcium ([6]; female control mice): 1.19 ± 0.05 mM
- Potassium ([6]; female control mice): 6.4 ± 0.1 mM
- Sodium ([6]; female control mice): 146.2 ± 0.7 mM
- Total CO2 ([6]; female control mice): 24.0 ± 1.1 mM
- Creatinine ([6]; female control mice): 0.24 ± 0.02 mg/dL
- Anion gap ([6]; female sRA mice): 18.5 ± 0.7 mM
- BUN ([6]; female sRA mice): 24.5 ± 1.7 mg/dL
- Chloride ([6]; female sRA mice): 105.2 ± 1.6 mM
- Glucose ([6]; female sRA mice): 136 ± 15 mg/dL
- Hematocrit ([6]; female sRA mice): 49.8 ± 1.1 % RBC
- Ionized calcium ([6]; female sRA mice): 1.18 ± 0.03 mM
- Potassium ([6]; female sRA mice): 5.3 ± 0.3 mM
- Sodium ([6]; female sRA mice): 146.3 ± 0.7 mM
- Total CO2 ([6]; female sRA mice): 28.8 ± 1.7 mM
- Creatinine ([6]; female sRA mice): 0.33 ± 0.04 mg/dL
- Anion gap ([6]; male control mice): 16.3 ± 0.5 mM
- BUN ([6]; male control mice): 21.5 ± 0.9 mg/dL
- Chloride ([6]; male control mice): 115.5 ± 0.3 mM
- Glucose ([6]; male control mice): 182 ± 7 mg/dL
- Hematocrit ([6]; male control mice): 43.8 ± 1.1 % RBC
- Ionized calcium ([6]; male control mice): 1.18 ± 0.04 mM
- Potassium ([6]; male control mice): 6.6 ± 0.5 mM
- Sodium ([6]; male control mice): 148.3 ± 1.3 mM
- Total CO2 ([6]; male control mice): 24.0 ± 0.8 mM
- Creatinine ([6]; male control mice): 0.25 ± 0.03 mg/dL
- Anion gap ([6]; male sRA mice): 21.0 ± 2.4 mM
- BUN ([6]; male sRA mice): 27.3 ± 2.1 mg/dL
- Chloride ([6]; male sRA mice): 107.0 ± 2.7 mM
- Glucose ([6]; male sRA mice): 181 ± 28 mg/dL
- Hematocrit ([6]; male sRA mice): 52.0 ± 1.1 % RBC
- Ionized calcium ([6]; male sRA mice): 1.18 ± 0.03 mM
- Potassium ([6]; male sRA mice): 5.4 ± 0.1 mM
- Sodium ([6]; male sRA mice): 147.5 ± 1.9 mM
- Total CO2 ([6]; male sRA mice): 26.0 ± 3.4 mM
- Creatinine ([6]; male sRA mice): 0.30 ± 0.04 mg/dL
- effect on hyponatremia and hypocalcemia ([6]; sRA mice, chronic tolvaptan 22 ng/h sc, 10 days): corrected both of these imbalances
- radiotelemetric blood pressure (sRA mice [5]): blood pressure reduction was confirmed

SMILES: CC[C@H](C)[C@H](NC(=O)[C@H](Cc1ccc(O)cc1)NC(=O)[C@@H](NC(=O)[C@H](CCCNC(=N)N)NC(=O)[C@@H](N)CC(=O)O)C(C)C)C(=O)N[C@@H](Cc1c[nH]cn1)C(=O)N1CCC[C@H]1C(=O)N[C@@H](Cc1ccccc1)C(=O)O [Angiotensin II, angiotensin II]
- Maximum Response, contraction (abdominal aorta [3]; male control littermate mice): 0.32 ± 0.03 g
- Maximum Response, contraction (abdominal aorta [3]; male sRA mice): 0.38 ± 0.03 g

SMILES: CC[C@H](C)[C@H](NC(=O)[C@H](CC(=O)O)NC(=O)[C@H](CC(C)C)NC(=O)[C@H](Cc1c[nH]cn1)NC(=O)[C@@H]1CSSC[C@H](N)C(=O)N[C@@H](CO)C(=O)N[C@H]2CSSC[C@H](NC(=O)[C@H](CCC(=O)O)NC(=O)[C@H](CCCCN)NC(=O)[C@H](CC(=O)O)NC(=O)[C@H](CCSC)NC(=O)[C@H](CC(C)C)NC(=O)[C@H](CO)NC(=O)[C@H](CO)NC2=O)C(=O)N[C@@H](C(C)C)C(=O)N[C@@H](Cc2ccc(O)cc2)C(=O)N[C@@H](Cc2ccccc2)C(=O)N1)C(=O)N[C@H](C(=O)N[C@@H](Cc1c[nH]c2ccccc12)C(=O)O)[C@@H](C)CC [Endothelin-1, endothelin-1]
- Maximum Response, contraction ([1]; male control littermate mice): 67.8 ± 4.3%
- EC50 ([1]; male control littermate mice): 1.68 ± 0.43 nM
- Maximum Response, contraction ([1]; male sRA mice): 58 ± 4.6%
- EC50 ([1]; male sRA mice): 0.45 ± 0.17 nM
- Maximum Response, contraction (abdominal aorta [3]; male control littermate mice): 0.45 ± 0.04 g
- Maximum Response, contraction (abdominal aorta [3]; male sRA mice): 0.55 ± 0.09 g
- EC50 (abdominal aorta [3]; male control littermate mice): 3.4 ± 0.33 nM
- EC50 (abdominal aorta [3]; male sRA mice): 5.19 ± 0.93 nM

- EC50 (abdominal aorta [7]; read-out: EC50, relaxation response, abdominal aorta, male control mice, after sub-maximal contraction with PGF2a): 130 ± 35 nM
- EC50 (abdominal aorta [7]; read-out: EC50, relaxation response, abdominal aorta, male sRA mice, after sub-maximal contraction with PGF2a): 879 ± 298 nM
SMILES: CC(=O)OCC[N+](C)(C)C [Acetylcholine, acetylcholine]
- Maximum Response, relaxation (abdominal aorta [3]; male control mice): 78.9 ± 3.3%
- Maximum Response, relaxation (abdominal aorta [3]; male sRA mice): 70.4 ± 8.9%

SMILES: [Cl-].[K+] [potassium chloride]
- contractile response to potassium chloride ([1]; mesenteric artery branches of sRA mice vs control, 100 mM KCl): significant reduction in contractile response
- constrictor response to potassium chloride (abdominal aorta [3]; aortic rings from sRA mice vs control, 100 mmol/l KCl): normal constrictor responses

- EC50 ([1]; Mus musculus, male control littermate mice): 1460 nM
- EC50 ([1]; Mus musculus, male sRA mice): 560 ± 80 nM
- EC50 (abdominal aorta [7]; read-out: EC50, contractile response, abdominal aorta, male control littermate mice): 1900 nM
- EC50 (abdominal aorta [7]; read-out: EC50, contractile response, abdominal aorta, male sRA mice): 2430 nM
SMILES: CNC[C@H](O)c1cccc(O)c1 [Phenylephrine, phenylephrine]
- Maximum Response, contraction ([1]; male control littermate mice): 67.3 ± 3%
- Maximum Response, contraction ([1]; male sRA mice): 64.5 ± 4.1%
- Maximum Response, contraction (abdominal aorta [3]; male control littermate mice): 1.18 ± 0.05 g
- Maximum Response, contraction (abdominal aorta [3]; male sRA mice): 1.02 ± 0.10 g
